# Results: ChEMBL document CHEMBL3044561, “A rapid access to new coumarinyl chalcone and substituted chromeno[4,3-c]pyrazol-4(1H)-ones and their antibacterial and DPPH radical scavenging activities” (Med Chem Res, 2011)
# Assays:
# [1] = tested on: Radical scavenging activity; test: Antioxidant activity assessed as DPPH free radical scavenging activity after 30 min; format: functional
# [2] = tested on: Staphylococcus aureus; test: Antibacterial activity against Staphylococcus aureus NCTC 7447 at 1 mg/disk after 24 hr by paper disk diffusion method; format: functional
Compound,IC50 [1],diameter of the inhibition zone (DIZ) [2],inhibition zone (IZ) [2]
O=C(/C=C/c1ccccc1)c1c(O)c2ccccc2oc1=O,2150 nM,10 mm,–
O=c1oc2ccccc2c2c1cnn2-c1ccccc1,–,19 mm,–
COc1cc(/C=C/C(=O)c2c(O)c3ccccc3oc2=O)cc(OC)c1OC,2290 nM,11 mm,–
O=c1oc2ccccc2c2[nH]ncc12,–,14 mm,–
O=C(/C=C/c1ccc(Br)cc1)c1c(O)c2ccccc2oc1=O,2250 nM,9 mm,–
COc1ccc(/C=C/C(=O)c2c(O)c3ccccc3oc2=O)cc1,2810 nM,14 mm,–
O=C(/C=C/c1cccc2ccccc12)c1c(O)c2ccccc2oc1=O,2390 nM,8 mm,–
CN(C)c1ccc(/C=C/C(=O)c2c(O)c3ccccc3oc2=O)cc1,2390 nM,11 mm,–
Cc1ccc(/C=C/C(=O)c2c(O)c3ccccc3oc2=O)cc1,2070 nM,13 mm,–
O=C(/C=C/c1ccc([N+](=O)[O-])cc1)c1c(O)c2ccccc2oc1=O,3210 nM,16 mm,–
GENTAMICIN,–,–,15 mm
O=C(/C=C/c1ccc(F)cc1)c1c(O)c2ccccc2oc1=O,2230 nM,13 mm,–
Cn1ncc2c(=O)oc3ccccc3c21,–,17 mm,–
